What was measured:
Type in all cases: in vivo
rats [1] = experiment: sub-acute toxicity, intramuscular, 2 weeks, male and female rats; details: 150 mg/kg (5 ml/kg of 3% solution)
Experimental: Over a period of 2 weeks, 10 male rats and female rats receive 150 mg/kg of benzyl alcohol, that is to say 5 ml/kg of 3% aqueous solution by the intramuscular route. […] Within the context of the anatomopathological examination, the liver, kidneys, spleen, lungs, suprarenals, testicles and ovaries are normal.

rats [2] = experiment: acute toxicity, intramuscular, rats; details: 750 mg/kg in 3% solution (25 ml/kg)
Experimental: (§1) No mortality is observed in mice or rats treated at the rate of 750 mg/kg of benzyl alcohol in 3% solution (viz 25 ml/kg of solution) by the intramuscular route.

mice = experiment: acute toxicity, intramuscular, mice; details: 750 mg/kg in 3% solution (25 ml/kg)
Experimental: as §1

Structure (SMILES): OCc1ccccc1 [benzyl alcohol]
- abnormal symptoms (rats [1]): No abnormal symptom appears
- anatomopathological examination (liver, kidneys, spleen, lungs, suprarenals, testicles and ovaries) (rats [1]): normal
- haematological variations (rats [1]): within the limits of physiological variations
- variations in blood and urine biochemistry (rats [1]): within the limits of physiological variations
- variations in weight (rats [1]): within the limits of physiological variations
- mortality (rats [2]): No mortality
- mortality (mice): No mortality

Reference: patent US4518606A, “Pharmaceutical compositions” (Beecham Group Limited, priority 1979, dated 1985)
